# Reference: patent publication US11382956B2, “Amylin analogues” (Zealand Pharma A/S, priority 2016, dated 2022)
# Numbered stars: 1 amine (or outer) side, 2 acyl side, 3 side chain; on linkers, the order of the positions; unused ones are H or OH. Bridge positions count the residues as written; N and C are the ends. Square brackets hold non-standard residues; d marks the D form. Peptide text beside a SMILES is read from it. * marks the point of attachment. C20 diacid = O=C(O)CCCCCCCCCCCCCCCCCCC(=O)*; γGlu = O=C(O)[C@H](CCC(=O)[*:2])N[*:1]; Hyp = O=C(O)[C@@H]1C[C@@H](O)CN1; NMeI = CC[C@H](C)[C@H](NC)C(=O)O; Aad = N[C@@H](CCCC(=O)O)C(=O)O; Sar = CNCC(=O)O
# Key:
# [1] = Assessment of chemical stability in 40 mM buffers at 40° C. (RP-HPLC); type: physicochemical; conditions: 1 mg/mL; for % degradation after 72 h at 40° C. pH4 acetate: acetate buffer pH 4, 72 h; for % degradation after 72 h at 40° C. pH6 phosphate: phosphate buffer pH 6, 72 h; for % degradation after 72 h at 40° C. pH7 phosphate: phosphate buffer pH 7, 72 h
# Outline: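 Peptides at 1 mg/mL in 40 mM acetate pH 4 or phosphate pH 6 and 7 were held at 40° C for 3 and 14 days. Main-peak area-% by C8 RP-HPLC, UV 220 nm; % degradation = change in main-peak area-% versus t=0.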
# [2] = Effect on acute food intake and body weight in normal Sprague Dawley rats; type: in vivo, Sprague Dawley (SD) rats; conditions: Dose: 30 nmol/kg sc, vehicle-corrected
# Description: Sprague Dawley (SD) rats were obtained from Janvier Labs, France. The animals arrived at least 14 days before the study start to allow acclimatization to experimental conditions. From arrival and throughout the study, the rats were housed in groups of 2 to 4 (n=2-4) in a light-, temperature- and humidity-controlled room. Animals had access ad libitum to food (KLIBA 3430, Provimi Kliba AG, Switzerland) and water (domestic quality tap water) during the entire study. Per group 6-8 rats were included. A vehicle group and positive control group were included in each set of tests. […] Dosing volume was 2 ml/kg. Food intake was recorded online using an automated food intake system (HM02, MBRose, Denmark) for 4 days or manually at 0 h for a predose and then 24, 48, 72 and 96 h post dosing. Body weight was measured daily.
# Statistical analyses were performed using GraphPad™ Prism version 7. The measured parameters were compared using two-way ANOVA followed by Dunnett's multiple comparison tests. Differences were considered statistically significant at p<0.05.
# [3] = Assessment of physical stability: fibril formation by Thioflavin T fluorescence; type: physicochemical; set-up: key: FND = fibrillation not detected; FD = fibrillation detected; conditions: 1 mg/mL peptide; for Fibrillation (in buffer) pH4 acetate: 50 mM acetate buffer pH 4.0, 96 hours at 40° C.; for Fibrillation (in buffer) pH7 histidine: 50 mM histidine buffer pH 7.0, 96 hours at 40° C.; for Fibrillation (in buffer) pH7 phosphate: 50 mM phosphate buffer pH 7.0, 96 hours at 40° C.
# Outline: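 Test peptide at 1 mg/mL with 40 μM ThT in 50 mM phosphate pH 7.0, 50 mM histidine pH 7.0, or 50 mM acetate pH 4.0, in triplicate. Fluorescence read every 10 min after 300 s agitation for 96 hours at 40° C; significant intensity rise scored as fibrillation detected (FD).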
# [4] = target: T1, recombinant human amylin 3 receptor (hAMYR3) (Homo sapiens, UniProt O60896+P30988); assay: hAMYR3 cAMP assay (AlphaScreen) in 1321N1 cells; type: cell-based; conditions: cAMP formation, 45 min stimulation
# T1 construct: host or cells: human astrocytoma cell line 1321N1
# T1 sequence (P30988 25-474): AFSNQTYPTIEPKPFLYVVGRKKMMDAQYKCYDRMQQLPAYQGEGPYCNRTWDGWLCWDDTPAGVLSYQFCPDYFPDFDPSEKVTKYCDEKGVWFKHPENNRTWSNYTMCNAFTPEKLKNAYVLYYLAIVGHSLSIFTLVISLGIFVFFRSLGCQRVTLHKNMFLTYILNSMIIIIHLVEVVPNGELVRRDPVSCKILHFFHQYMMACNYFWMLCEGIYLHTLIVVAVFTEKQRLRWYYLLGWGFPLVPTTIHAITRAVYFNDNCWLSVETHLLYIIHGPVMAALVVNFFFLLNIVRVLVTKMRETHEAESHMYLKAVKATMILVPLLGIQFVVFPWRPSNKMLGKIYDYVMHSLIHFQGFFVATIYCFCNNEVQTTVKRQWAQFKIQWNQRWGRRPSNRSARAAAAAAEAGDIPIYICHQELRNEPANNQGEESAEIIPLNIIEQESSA
# T1 sequence (O60896 24-148 partner): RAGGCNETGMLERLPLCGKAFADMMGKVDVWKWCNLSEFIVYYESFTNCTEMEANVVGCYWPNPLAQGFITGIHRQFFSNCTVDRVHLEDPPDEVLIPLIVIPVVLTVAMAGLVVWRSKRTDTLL
# Outline: (§1)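 1321N1 astrocytoma cells expressing recombinant human calcitonin receptor alone or with RAMP3 (AMY3) stimulated 45 min at room temperature with peptide in IBMX-containing buffer. cAMP quantified by AlphaScreen after 1 h bead incubation; EC50 fitted from at least 7 concentrations.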
# [5] = target: T2, recombinant human calcitonin receptor (hCT-R) (Homo sapiens, UniProt P30988); assay: hCT-R cAMP assay (AlphaScreen) in 1321N1 cells; type: cell-based; conditions: cAMP formation, 45 min stimulation
# T2 construct: host or cells: human astrocytoma cell line 1321N1
# T2 sequence (P30988 25-474): T1 sequence (P30988 25-474)
# Outline: as §1
Structure (SMILES),% degradation after 72 h at 40° C. pH4 acetate [1],% degradation after 72 h at 40° C. pH6 phosphate [1],% degradation after 72 h at 40° C. pH7 phosphate [1],Body weight reduction in % at 48 h [2],Food intake reduction in % at 48 h [2],Fibrillation (in buffer) pH4 acetate [3],Fibrillation (in buffer) pH7 histidine [3],Fibrillation (in buffer) pH7 phosphate [3],EC50 [4],EC50 [5],"% degradation after 14 days at 40° C. pH4 acetate ([1]; acetate buffer pH 4, 14 days)","% degradation after 14 days at 40° C. pH6 phosphate ([1]; phosphate buffer pH 6, 14 days)","% degradation after 14 days at 40° C. pH7 phosphate ([1]; phosphate buffer pH 7, 14 days)"
"CC[C@H](C)[C@@H](C(=O)N[C@@H](CC(C)C)C(=O)N[C@@H](CO)C(=O)N[C@@H](CO)C(=O)N[C@H](C(=O)N[C@@H](CCC(=O)O)C(=O)N[C@H](C(=O)NCC(=O)N[C@@H](CO)C(=O)N[C@@H](CC(N)=O)C(=O)N[C@H](C(=O)N1C[C@H](O)C[C@H]1C(N)=O)[C@@H](C)O)C(C)C)[C@@H](C)O)N(C)C(=O)[C@H](C)NC(=O)CN(C)C(=O)[C@H](Cc1ccccc1)NC(=O)[C@H](CO)NC(=O)[C@H](CO)NC(=O)[C@H](CCCNC(=N)N)NC(=O)[C@H](CCC(N)=O)NC(=O)[C@H](CC(C)C)NC(=O)[C@H](Cc1ccccc1)NC(=O)[C@H](CCCC(=O)O)NC(=O)[C@H](C)NC(=O)[C@H](CC(C)C)NC(=O)[C@H](CCCNC(=N)N)NC(=O)[C@H](CCC(N)=O)NC(=O)[C@@H](NC(=O)[C@H](C)NC(=O)[C@@H]1CCCCNC(=O)C[C@H](NC(=O)[C@H](CCCNC(=N)N)NC(=O)CC[C@H](NC(=O)CCCCCCCCCCCCCCCCCCC(=O)O)C(=O)O)C(=O)NCC(=O)N[C@@H]([C@@H](C)O)C(=O)N[C@@H](C)C(=O)N[C@@H]([C@@H](C)O)C(=O)N1)[C@@H](C)O [Compound 40, [19CD]-isoGlu-RD()GTATK()ATQRLA-Aad-FLQRSSF-Gly(Me)-A-Ile(Me)-LSSTEVGSNT-Hyp-NH2] ({C20 diacid-γGlu}-RDGTATKATQRLA[Aad]FLQRSSF[Sar]A[NMeI]LSSTEVGSNT[Hyp]-NH2; lactam 2-7)",1.1%,<1%,<1%,7.3%,83%,FD,FND,FND,8 pM,28 pM,–,–,–
"CC[C@H](C)[C@@H](C(=O)N[C@@H](CC(C)C)C(=O)N[C@@H](CO)C(=O)N[C@@H](CO)C(=O)N[C@H](C(=O)N[C@@H](CCC(=O)O)C(=O)N[C@H](C(=O)NCC(=O)N[C@@H](CO)C(=O)N[C@@H](CC(N)=O)C(=O)N[C@H](C(=O)N1C[C@H](O)C[C@H]1C(N)=O)[C@@H](C)O)C(C)C)[C@@H](C)O)N(C)C(=O)[C@H](C)NC(=O)CN(C)C(=O)[C@H](Cc1ccccc1)NC(=O)[C@H](CO)NC(=O)[C@H](CO)NC(=O)[C@H](CCCNC(=N)N)NC(=O)[C@H](CCC(N)=O)NC(=O)[C@H](CC(C)C)NC(=O)[C@H](Cc1ccccc1)NC(=O)[C@H](CC(=O)O)NC(=O)[C@H](C)NC(=O)[C@H](CC(C)C)NC(=O)[C@H](CCCNC(=N)N)NC(=O)[C@H](CCC(N)=O)NC(=O)[C@@H](NC(=O)[C@H](C)NC(=O)[C@@H]1CCCCNC(=O)C[C@H](NC(=O)[C@H](CCCNC(=N)N)NC(=O)CC[C@H](NC(=O)CCCCCCCCCCCCCCCCCCC(=O)O)C(=O)O)C(=O)NCC(=O)N[C@@H]([C@@H](C)O)C(=O)N[C@@H](C)C(=O)N[C@@H]([C@@H](C)O)C(=O)N1)[C@@H](C)O [Compound 41, [19CD]-isoGlu-RD()GTATK()ATQRLADFLQRSSF-Gly(Me)-A-Ile(Me)-LSSTEVGSNT-Hyp-NH2] ({C20 diacid-γGlu}-RDGTATKATQRLADFLQRSSF[Sar]A[NMeI]LSSTEVGSNT[Hyp]-NH2; lactam 2-7)",<1%,<1%,<1%,11%,75%,FND,FND,FND,24 pM,95 pM,1.1%,<1%,<1%
